Assay results from PMC9833666, “Designing and identifying β-hairpin peptide macrocycles with antibiotic potential” (Science Advances, 2023).
Bridge positions count the residues as written; N and C are the ends. Peptide text beside a SMILES is read from it.

Legend:
[1] = test system: Acinetobacter baumannii AB5075; settings: AB5075
Description: MICs were performed by a modifiedClinical and Laboratory Standards Institute) procedure. […] Separately, E. coli W3110 or A. baumannii AB5075 was grown overnight in 5 ml of standard MH at 37°C. Cells from these cultures were diluted to a concentration of 5 × 10^5 to 6 × 10^5 cells/ml in either standard MH, MHII, RPMI, or fetal bovine serum, and 90 μl was added to each well of the 96-well plate containing diluted peptide. Plates were wrapped twice in parafilm and incubated at 37°C for 18 to 24 hours. Wells were examined by eye against wells with no bacteria for signs of growth. MICs were reported as the minimum concentration with no observable growth. In cases where triplicate samples differed, the concentration supported by the median of the three replicates was reported. […]
For consistency, all SynCH peptides were resuspended at 10 mg/ml in water. Peptides were then visually inspected for any lack of solubility (Data File S1). […]
We had this library commercially synthesized and tested its ability to inhibit the growth of Acinetobacter baumannii AB5075, a clinically isolated Carbapenem Resistant Acinetobacter (CRA) pathogen. MICs were performed in MH as well as 100% FBS, which is likely more representative of the in vivo environment. […]

[2] = test system: Escherichia coli W3110; assay type: cell-based; settings: for Ec W3110 MIC MH: E. coli W3110, MH medium; for Ec W3110 MIC RPMI: E. coli W3110, RPMI medium

| Structure (SMILES) | AB5075 MIC FBS [1] [µg/mL] | AB5075 MIC MH [1] [µg/mL] | Ec W3110 MIC MH [2] [µg/mL] | Ec W3110 MIC RPMI [2] [µg/mL] | W3110 MIC MH [2] [µg/mL] | W3110 MIC RPMI [2] [µg/mL] |
| --- | --- | --- | --- | --- | --- | --- |
| CC(C)C[C@@H]1NC(=O)[C@H](CCCNC(=N)N)NC(=O)[C@H](C(C)C)NC(=O)[C@H](CCCNC(=N)N)NC(=O)[C@H](CC(C)C)NC(=O)[C@@H](N)CSSC[C@@H](C(=O)O)NC(=O)[C@H](C(C)C)NC(=O)[C@H](CCCNC(=N)N)NC(=O)[C@H](CC(C)C)NC(=O)[C@H](CO)NC(=O)[C@H](C(C)C)NC(=O)[C@H](CCCCN)NC(=O)[C@H](C(C)C)NC(=O)[C@H](CCCNC(=N)N)NC(=O)CNC(=O)[C@H](CCCNC(=N)N)NC(=O)[C@H](CCCNC(=N)N)NC(=O)[C@H](CC(N)=O)NC(=O)[C@H](CCCNC(=N)N)NC1=O [SySA-5.1] (H-CLRVRLRNRRGRVKVSLRVC-OH; disulfide 1-20) | 128 | 8 | – | – | – | – |
| CC(C)C[C@@H]1NC(=O)[C@H](CCCNC(=N)N)NC(=O)[C@H](C(C)C)NC(=O)[C@H](CCCNC(=N)N)NC(=O)[C@H](CC(C)C)NC(=O)[C@@H](N)CSSC[C@@H](C(=O)O)NC(=O)[C@H](C(C)C)NC(=O)[C@H](CCCNC(=N)N)NC(=O)[C@H](CC(C)C)NC(=O)[C@H](CCCNC(=N)N)NC(=O)[C@H](C(C)C)NC(=O)[C@H](CCCCN)NC(=O)[C@H](C(C)C)NC(=O)[C@H](CCCNC(=N)N)NC(=O)[C@H](CCCNC(=N)N)NC(=O)[C@H](CCCNC(=N)N)NC(=O)[C@H](CCCNC(=N)N)NC(=O)[C@H](CC(N)=O)NC(=O)[C@H](CCCNC(=N)N)NC1=O [SySA-5.2] (H-CLRVRLRNRRRRVKVRLRVC-OH; disulfide 1-20) | > 128 | 4 | – | – | – | – |
| CC(C)C[C@@H]1NC(=O)[C@H](CO)NC(=O)[C@H](C(C)C)NC(=O)[C@H](CCCCN)NC(=O)[C@H](C(C)C)NC(=O)[C@H](CCCNC(=N)N)NC(=O)CNC(=O)[C@H](CCCNC(=N)N)NC(=O)[C@H](CCCNC(=N)N)NC(=O)[C@H](CC(N)=O)NC(=O)[C@H](CC(N)=O)NC(=O)[C@H](CC(C)C)NC(=O)[C@H](CCCNC(=N)N)NC(=O)[C@H](C(C)C)NC(=O)[C@H](CCCNC(=N)N)NC(=O)[C@@H](N)CSSC[C@@H](C(=O)O)NC(=O)[C@H](CCC(N)=O)NC1=O [SySA-5.5] (H-CRVRLNNRRGRVKVSLQC-OH; disulfide 1-18) | > 128 | 8 | – | – | – | – |
| CC[C@H](C)[C@@H]1NC(=O)[C@H](CCCNC(=N)N)NC(=O)[C@H](CC(C)C)NC(=O)CNC(=O)[C@H](CCCNC(=N)N)NC(=O)[C@H](CCCNC(=N)N)NC(=O)[C@H](CCCNC(=N)N)NC(=O)[C@H](CC(N)=O)NC(=O)[C@H](CC(N)=O)NC(=O)[C@H](CC(C)C)NC(=O)[C@H](CCCNC(=N)N)NC(=O)[C@H](C(C)C)NC(=O)[C@H](CCCNC(=N)N)NC(=O)[C@H](CC(C)C)NC(=O)[C@@H](N)CSSC[C@@H](C(=O)O)NC(=O)[C@H](C(C)C)NC(=O)[C@H](CCC(N)=O)NC(=O)[C@H](CC(C)C)NC(=O)[C@H](CO)NC1=O [SySA-73] (H-CLRVRLNNRRRGLRISLQVC-OH; disulfide 1-20; N-terminus and C-terminus assumed) | – | – | 32 | 8 | 32 | 8 |
| CC[C@H](C)[C@@H]1NC(=O)[C@H](CCCCN)NC(=O)[C@H](CC(C)C)NC(=O)[C@H](CCCNC(=N)N)NC(=O)[C@H](CCCNC(=N)N)NC(=O)[C@H](CCCNC(=N)N)NC(=O)[C@H](CCCNC(=N)N)NC(=O)[C@H](CC(N)=O)NC(=O)[C@H](CC(N)=O)NC(=O)[C@H](CC(C)C)NC(=O)[C@H](CCCNC(=N)N)NC(=O)[C@H](C(C)C)NC(=O)[C@H](CCCNC(=N)N)NC(=O)[C@H](C(C)C)NC(=O)[C@@H](N)CSSC[C@@H](C(=O)O)NC(=O)[C@H](C(C)C)NC(=O)[C@H](CCC(=O)O)NC(=O)[C@H](CC(C)C)NC(=O)[C@H](CO)NC1=O [SySA-78] (H-CVRVRLNNRRRRLKISLEVC-OH; disulfide 1-20; N-terminus and C-terminus assumed) | – | – | 32 | 16 | 32 | 16 |
| CC(C)C[C@@H]1NC(=O)[C@H](CCCNC(=N)N)NC(=O)[C@H](CCCNC(=N)N)NC(=O)[C@H](CCCNC(=N)N)NC(=O)CNC(=O)[C@H](CC(N)=O)NC(=O)[C@H](CC(N)=O)NC(=O)[C@H](C(C)C)NC(=O)[C@H](CCCNC(=N)N)NC(=O)[C@H](C(C)C)NC(=O)[C@H](CCCNC(=N)N)NC(=O)[C@H](C(C)C)NC(=O)[C@@H](N)CSSC[C@@H](C(=O)O)NC(=O)[C@H](C(C)C)NC(=O)[C@H](CCC(N)=O)NC(=O)[C@H](CC(C)C)NC(=O)[C@H](CO)NC(=O)[C@H](C(C)C)NC(=O)[C@H](CCCCN)NC1=O [SySA-79] (H-CVRVRVNNGRRRLKVSLQVC-OH; disulfide 1-20; N-terminus and C-terminus assumed) | – | – | 64 | 32 | 64 | 32 |
| CC[C@H](C)[C@@H]1NC(=O)[C@H](CCCNC(=N)N)NC(=O)[C@H](C(C)C)NC(=O)[C@@H](N)CSSC[C@@H](C(=O)O)NC(=O)[C@H](C(C)C)NC(=O)[C@H](CCC(N)=O)NC(=O)[C@H](CC(C)C)NC(=O)[C@H]([C@@H](C)O)NC(=O)[C@H](C(C)C)NC(=O)[C@H](CCCCN)NC(=O)[C@H](C(C)C)NC(=O)[C@H](CCCNC(=N)N)NC(=O)[C@H](CCCNC(=N)N)NC(=O)[C@H](CCCNC(=N)N)NC(=O)[C@H](CCCNC(=N)N)NC(=O)[C@H](CC(N)=O)NC(=O)[C@H](CC(N)=O)NC(=O)[C@H](CC(C)C)NC(=O)[C@H](CCCNC(=N)N)NC1=O [SySA-80] (H-CVRIRLNNRRRRVKVTLQVC-OH; disulfide 1-20; N-terminus and C-terminus assumed) | – | – | 16 | 16 | 16 | 16 |
| CC(C)C[C@@H]1NC(=O)[C@H](CCCNC(=N)N)NC(=O)[C@H](C(C)C)NC(=O)[C@H]([C@@H](C)O)NC(=O)[C@H](CC(C)C)NC(=O)[C@@H](N)CSSC[C@@H](C(=O)O)NC(=O)[C@H](C(C)C)NC(=O)[C@H](CCC(N)=O)NC(=O)[C@H](C(C)C)NC(=O)[C@H](CO)NC(=O)[C@H](C(C)C)NC(=O)[C@H](CCCCN)NC(=O)[C@H](C(C)C)NC(=O)CNC(=O)[C@H](CCCNC(=N)N)NC(=O)[C@H](CCCNC(=N)N)NC(=O)[C@H](CCCNC(=N)N)NC(=O)[C@H](CC(N)=O)NC(=O)[C@H](CC(N)=O)NC1=O [SySA-81] (H-CLTVRLNNRRRGVKVSVQVC-OH; disulfide 1-20; N-terminus and C-terminus assumed) | – | – | 64 | 32 | 64 | 32 |
| CC[C@H](C)[C@@H]1NC(=O)[C@H](CCCCN)NC(=O)[C@H](CC(C)C)NC(=O)CNC(=O)[C@H](CCCNC(=N)N)NC(=O)[C@H](CCCNC(=N)N)NC(=O)[C@H](CCCNC(=N)N)NC(=O)[C@H](CC(N)=O)NC(=O)[C@H](CC(N)=O)NC(=O)[C@H](CC(C)C)NC(=O)[C@H](CCCNC(=N)N)NC(=O)[C@H]([C@@H](C)CC)NC(=O)[C@H](CCCNC(=N)N)NC(=O)[C@H](C(C)C)NC(=O)[C@@H](N)CSSC[C@@H](C(=O)O)NC(=O)[C@H](C(C)C)NC(=O)[C@H](CCC(N)=O)NC(=O)[C@H](CC(C)C)NC(=O)[C@H](CO)NC1=O [SySA-82] (H-CVRIRLNNRRRGLKISLQVC-OH; disulfide 1-20; N-terminus and C-terminus assumed) | – | – | 64 | 8 | 64 | 8 |
| CC[C@H](C)[C@@H]1NC(=O)[C@H](CCCCN)NC(=O)[C@H](CC(C)C)NC(=O)[C@H](CCCNC(=N)N)NC(=O)CNC(=O)CNC(=O)[C@H](CCCNC(=N)N)NC(=O)[C@H](CC(N)=O)NC(=O)[C@H](CC(N)=O)NC(=O)[C@H](C(C)C)NC(=O)[C@H](CCCNC(=N)N)NC(=O)[C@H](C(C)C)NC(=O)[C@H](CCCNC(=N)N)NC(=O)[C@H](C(C)C)NC(=O)[C@@H](N)CSSC[C@@H](C(=O)O)NC(=O)[C@H](C(C)C)NC(=O)[C@H](CCC(N)=O)NC(=O)[C@H](C(C)C)NC(=O)[C@H](CO)NC1=O [SySA-83] (H-CVRVRVNNRGGRLKISVQVC-OH; disulfide 1-20; N-terminus and C-terminus assumed) | – | – | 128 | 16 | 128 | 16 |
| CC[C@H](C)[C@@H]1NC(=O)[C@H](CCCCN)NC(=O)[C@H](CC(C)C)NC(=O)CNC(=O)[C@H](CCCNC(=N)N)NC(=O)[C@H](CCCNC(=N)N)NC(=O)[C@H](CCCNC(=N)N)NC(=O)[C@H](CC(N)=O)NC(=O)[C@H](CC(N)=O)NC(=O)[C@H](CC(C)C)NC(=O)[C@H](CCCNC(=N)N)NC(=O)[C@H](C(C)C)NC(=O)[C@H](CCCNC(=N)N)NC(=O)[C@H](C(C)C)NC(=O)[C@@H](N)CSSC[C@@H](C(=O)O)NC(=O)[C@H](C(C)C)NC(=O)[C@H](CCC(N)=O)NC(=O)[C@H](CC(C)C)NC(=O)[C@H]([C@@H](C)O)NC1=O [SySA-88] (H-CVRVRLNNRRRGLKITLQVC-OH; disulfide 1-20; N-terminus and C-terminus assumed) | – | – | 32 | 8 | 32 | 8 |
